From patent publication US8785423B2, “Compositions and methods of inducing endoplasmic reticulum stress response for the treatment of cell proliferative diseases” (University of Maryland, Baltimore, priority 2008, dated 2014)

How the values were obtained:
Type in all cases: cell-based
PC-3 cells [1] = assay: MTT cell viability assay, 96 hr exposure; conditions: PC-3, 96 hrs; for GI50: Homo sapiens
Method: (§1) All cell lines were obtained from American. Type Culture Collection (Rockville, Md.) and maintained in RPM 1640 media supplemented with 10% fetal bovine serum and 5% penicillin streptomycin solution. Cells were grown as a monolayer in a humidified incubator (5% CO2) at 37° C. To determine the effect of the various compounds on cell proliferation, cells were plated (2500 cells/well) in 96-well cell culture dishes (Corning, Inc. Corning, N.Y.). After a 24 hr attachment period, media was replaced with fresh media containing compounds (0.01 μM-100 μM) or vehicle (95% ethanol). The cells were then allowed to grow in the presence of the drugs for 96 hrs. After 96 hrs, relative cell viability was assessed using the MIT reagent (3-(4,5-dimethylthiazol-2-yl)-2,5-diphenyltetrazolium bromide) as is well-known in the art. […] Results were plotted using the average of each dose over all three experiments and fitted with a best-fit sigmoidal dose response variable slope curve using GraphPad Prism 4.01 (GraphPad Software, Inc.). For combination of VN/124-1 and Thapsigargin, cells were treated for 72 hrs and viability was assessed as described for single agents. Combination index (CI) was calculated as is well known in the art, and CI values less than 1 are considered synergistic.

DU-145 cells = assay: MTT cell viability assay, 96 hr exposure; conditions: DU-145, 96 hrs; for GI50: Homo sapiens
Method: as §1

LNCaP cells = assay: MTT cell viability assay, 96 hr exposure; conditions: for GI50: Homo sapiens
Method: as §1

[2] = test system: eIF2α, p-eIF2α, cyclin D1, gp78/BiP, CHOP; assay: Western blot of ERSR related proteins; conditions: 20 μM
Method: Cells were treated with VN/124-1, thapsigargin or vehicle for 6 and 24 hrs. Protein was isolated, subjected to SDS-PAGE, transferred and imaged as is known in the art. Primary antibodies against eIF2α, p-eIF2α, cyclin D1, gp78/BiP, and β-actin were purchased from Cell Signaling (Danvers, Mass.), Anti-CHOP antibody was purchased from Sigma Aldrich (St Louis, Mo.). Quantitation of relative protein expression was determined via densitometry using the software ImageQuant 5.0 (Molecular Dynamics) with each protein normalized to its respective loading control. Results represent the average of at least 3 independent experiments, with representative blots shown.

PC-3 cells [3] = assay: Microarray global gene expression (GeneChip Human Genome Focus Array, DAVID ontologies); conditions: 20 μM, 24 hrs
Method: To perform the microarray experiments, PC-3 cells were treated with (95% ethanol) or 20 μM of VN/124-1. After 24 hr exposure to the agent, cells were pelleted and lysed using Qiagen RLT (Qiagen Inc.; Valencia, Calif.) buffer containing 1% β-mercaptoethanol. Total RNA was isolated using the Qiagen RNeasy-Mini Kit following manufacturer's protocol. Quantity and purity were assessed by absorption at 260 nm and 280 nm. RNA integrity was assessed using an Agilent Bioanalyzer (Agilent Technologies; Santa Clara, Calif.). Experiments were carried out in duplicate, with triplicate samples (dosed independently on 3 different days) from each experiment pooled for analysis on a single chip.
Samples were hybridized to a GeneChip® Human Genome Focus Array (Affymetrix Inc., U.S.A.) and analyzed using an Affymetrix Genechip Scanner 3000 according to manufacturer's protocol. Gene ontologies were identified using the online Database for Annotation, Visualization, and integrated Discovery (DAVID) provided by the National Institute of Allergy and Infectious Diseases and the National Institute of Health. […] Stringent criteria of a minimum EASE/P-Value threshold of 0.001 and a gene count threshold of 5 were used to identify altered gene ontologies.

PC-3 cells [4] = assay: Ca2+ transients in individual cells, Fluo-3AM; conditions: 20 μM; for transient rise in [Ca2+]i, mean peak ΔF/F0: Fluo-3AM
Method: (§2) PC-3 Cells were loaded with either fura-2 or fluo-3 indicator by incubation with 2 μM fura-2/AM or 2 μM fluo-3/AM in RPMI 1640 medium containing 10% fetal bovine serum for >60 min at room temperature. During experiments, the coverslips were mounted in a flow chamber and superfused with oxygenated Locke solution containing (in mM): 10 glucose, 136 NaCl, 5.6 KCl, 1.2 NaH2PO4 14.3 NaHCO3, 1.2 MgCl2, and 2.2 CaCl2, pH 7.4, at room temperature (22-24° C.).
For measurement of [Ca^2+]i in individual cells, PC-3 cells were incubated on coverslips with 20 μM VN/124-1 or vehicle for 24 hrs. Cells loaded with fura-2 were placed in a perfusion chamber mounted on an inverted microscope (TE200; Nikon, Tokyo, Japan) equipped with a UV-transmitting objective (SuperFluor, 40×, N.A. 1.4, Nikon). Pura-2 was alternately excited by 340 nm and 380 nm light from monochrometers (Deltascan Illumination System, Photonic Technology International (PTI), South Brunswick, N.J.) and fura-2 emission was passed through a 515 nm longpass tiller before detection by a cooled CCD camera (Retiga 2000R, Q-Imaging, Burnaby, Canada). For measurement of Cat^2+ transients in individual cells, coverslips with fluo-3 loaded cells were excited by the output of a 100 W mercury are lamp that passed through a 480 nm bandpass filter (30 nm bandwidth). Fluorescence emission was passed through a 515 nm longpass filter before capture by a cooled CCD camera (Retiga 2000R, Q-Imaging). Image acquisition was performed with QCapture Pro (Q-Imaging) and analysis was performed with ImageJ (U.S. National Institutes of Health Bethesda, Md. USA).
(§3) Fluo-3 Ca^2+ indicator measurements are reported as the fractional change in fluorescence intensity relative to baseline (ΔF/F0), which was determined as follows. Within a temporal sequence of fluorescence images, a region of interest (ROI) was drawn around each cell to be analyzed. The fluorescence signal from each cell was calculated as the pixel-averaged intensity within each ROI. […]

PC-3 cells [5] = assay: Absolute [Ca2+]i in individual cells, Fura-2AM; conditions: 20 μM, 24 hrs, control cells about 42.05 nM
Method: as §2
For measurement of [Ca^2+]i in individual cells, PC-3 cells were incubated on coverslips with 20 μM VN/124-1 or vehicle for 24 hrs. Cells loaded with fura-2 were placed in a perfusion chamber mounted on an inverted microscope (TE200; Nikon, Tokyo, Japan) equipped with a UV-transmitting objective (SuperFluor, 40×, N.A. 1.4, Nikon). […] Fluorescence emission was passed through a 515 nm longpass filter before capture by a cooled CCD camera (Retiga 2000R, Q-Imaging). […]
as §3

PC-3 cells [6] = assay: Real-time PCR (qRT-PCR) of stress response and cell cycle related genes; conditions: 20 μM, 24 hr
Method: Cells were treated, lysed and RNA collected and quantified using the same method outlined above. Cells were dosed independently on 3 separate days (n=3). 1 μg of total RNA was converted to cDNA using ReactionReady™ First Strand cDNA Synthesis kit (SuperArray Bioscience Corp.; Frederick, Md.) following manufacturer's protocol. 50 ng of template cDNA was then used in subsequent real-time PCR (qRT-PCR) reactions. Template was combined with target gene specific or β-actin control RT^2 PCR Primer Sets, RT^2 Real-Time™ SYBR Green/Rox Master Mix (SuperArray Bioscience Corp.), and ddH2O for a final reaction volume of 25 μL and run on a 7900HT Fast Real-Time PCR system (Applied Biosystems; Foster City, Calif.) following manufacturer's protocol. Fold changes were calculated using the ΔΔCt method as recommended by the manufacture's protocol.

PC-3 cells [7] = assay: Cell cycle analysis by flow cytometry in synchronized cells; conditions: 20 μM
Method: Cells were synchronized in the G1/G0 phase by maintaining them in 0.2% FBS-containing media for 96 hrs. After starvation, media was replaced with normal growth media (10% FBS) containing vehicle (95% ethanol) or 20 μM VN/124-1 for 12, 18, and 24 hrs. At each timepoint, cells were pelleted and fixed in 70% ethanol at −20° C. for at least 24 hrs. Fixed cells were then incubated with 1 mL propidium iodide (PI) staining buffer (1 mg/ml PI, 0.1% Triton-X, and 10 μg/ml RNase A dissolved in PBS) for 1 hr at room temperature and DNA content was measured by flow cytometry analysis using a FACSort flow cytometer (Becton Dickinson, San Jose, Calif.). 15,000 events were analyzed for each sample and ModFit LT version 3.1 (Verity Software House Ind., ME) was used to analyze cell cycle distribution.

PC-3 cells [8] = assay: Co-administration of VN/124-1 and thapsigargin, MTT cell viability, combination index; conditions: 96 hrs, CI less than 1 synergistic
Method: All cell lines were obtained from American. Type Culture Collection (Rockville, Md.) and maintained in RPM 1640 media supplemented with 10% fetal bovine serum and 5% penicillin streptomycin solution. Cells were grown as a monolayer in a humidified incubator (5% CO2) at 37° C. To determine the effect of the various compounds on cell proliferation, cells were plated (2500 cells/well) in 96-well cell culture dishes (Corning, Inc. Corning, N.Y.). After a 24 hr attachment period, media was replaced with fresh media containing compounds (0.01 μM-100 μM) or vehicle (95% ethanol). The cells were then allowed to grow in the presence of the drugs for 96 hrs. After 96 hrs, relative cell viability was assessed using the MIT reagent (3-(4,5-dimethylthiazol-2-yl)-2,5-diphenyltetrazolium bromide) as is well-known in the art. Experiments were carried out 3 times with 6 replicates per dose per experiment (n=18). Results were plotted using the average of each dose over all three experiments and fitted with a best-fit sigmoidal dose response variable slope curve using GraphPad Prism 4.01 (GraphPad Software, Inc.). […] Combination index (CI) was calculated as is well known in the art, and CI values less than 1 are considered synergistic.

Structure (SMILES)	GI50 (PC-3 cells [1]) [µM]	GI50 (DU-145 cells) [µM]	GI50 (LNCaP cells) [µM]	GI90 (PC-3 cells [1]) [µM]	GI90 (DU-145 cells) [µM]	GI90 (LNCaP cells) [µM]	other results
C[C@]12CC[C@H](O)CC1=CC[C@@H]1[C@@H]2CC[C@]2(C)C(c3cccnc3)=CC[C@@H]12 [Abiraterone, 17-(3-pyridyl)androsta-5,16-dien-3β-ol, reference compound]	9.32	14.7	1.41				
C[C@]12CC[C@H](O)CC1=CCC1C2CC[C@]2(C)C(n3cncn3)=CCC12 (stereo partly shown) [VN/63-1]	2.91	11	1.05	>100	>100	>100	
C[C@]12CC[C@H](O)CC1=CCC1C2CC[C@]2(C)C(n3ccnc3)=CCC12 (stereo partly shown) [VN/85-1]	1.86	5.31	2.47	30.41	31.62	36.49	
C[C@]12CC[C@H](O)CC1=CC[C@@H]1[C@@H]2CC[C@]2(C)C(n3cnc4ccccc43)=CC[C@@H]12 [VN/124-1]	7.82	7.55	3.15	18.62	15.95	31.99	CHOP protein level [2]: up-regulation; expression of gp78/BiP protein [2]: significantly induced; phosphorylation of eIF2α ([2]; 6 and 24 hrs): induced the phosphorylation; cyclin D1 protein ([2]; 24 hrs): down-regulation; S100P calcium binding protein gene expression (PC-3 cells [3]): most highly up-regulated; transient rise in [Ca2+]i, mean peak ΔF/F0 (PC-3 cells [4]; extracellular calcium removed): 0.967; transient rise in [Ca2+]i, mean peak ΔF/F0 (PC-3 cells [4]; presence of extracellular calcium): 0.613; transient rise in [Ca2+]i after depletion of ER calcium stores (PC-3 cells [4]; pretreatment with SERCA inhibitor cyclopiazonic acid (CPA)): completely abolished; absolute [Ca2+]i, mean (PC-3 cells [5]): about 66.21 nM; activating transcription factor 4 (ATF4) gene expression (PC-3 cells [6]; microarray verified by qRT-PCR): up-regulated; asparagines synthetase (ASKS) gene expression (PC-3 cells [6]; microarray verified by qRT-PCR): up-regulated; CHOP gene expression (PC-3 cells [6]; qRT-PCR): strongly up-regulated; cyclin D1 mRNA levels (PC-3 cells [6]; qRT-PCR): not affected; cyclin E2 mRNA levels (PC-3 cells [6]; qRT-PCR): significantly reduced; amount of cells in G1/G0 (PC-3 cells [7]; 18 and 24 hrs, synchronized cells): significant increase; exit from G1 phase of the cell cycle (PC-3 cells [7]; cells synchronized by serum starvation): prevented the exit from G1 phase; Combination index (CI) (PC-3 cells [8]; 5 μM VN/124-1 plus 10 nM thapsigargin): 0.40; Combination index (CI) (PC-3 cells [8]; 10 μM VN/124-1 plus 10 nM thapsigargin): 0.58; Combination index (CI) (PC-3 cells [8]; 20 μM VN/124-1 plus 10 nM thapsigargin): 0.77
C[C@]12CCC(=O)C=C1CCC1C2CC[C@]2(C)C(n3cnc4ccccc43)=CCC12 (stereo partly shown) [VN/125-1]				8.07	15.53	13.46	
